Test results from patent US11420922B2, “Hydroxylated tropolone inhibitors of nucleotidyl transferases in herpesvirus and Hepatitis B and uses therefor” (Saint Louis University, priority 2015, dated 2022).
“Also recorded” adds a separate entry of the source.

What was measured:
[1] = Mouse liver microsome assay; type: in vitro ADME; conditions: 1 μM in mouse liver microsomes
Method in brief: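 Mouse liver microsomes at 0.25 μM P450 final in 0.1 M potassium phosphate with 3.3 mM MgCl and 1 μM compound, prewarmed 5 min at 37 °C. Reaction started with NADPH (1.2 mM final); aliquots at 0, 5, 10, 20 and 30 min quenched in cold acetonitrile with EDTA or EGTA, analysed by LC/MS/MS.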

[2] = system: HBV; experiment: HBV replication assay in HepDES19 cells; type: cell-based; conditions: Hepatitis B virus; HepDES19 cells; read-out: EC50 (HBV assay)
Method in brief: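 HepDES19 cells induced by tetracycline withdrawal, then compound applied 48 h later in duplicate (1% DMSO final) and refreshed daily for two more days. After micrococcal nuclease digestion, capsid-associated HBV DNA purified and plus- and minus-strand DNA quantified by TaqMan PCR.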

[3] = Quantitative Vero cell toxicity (MTT); type: cell-based; conditions: African green monkey, Vero cells
Description: Qualitative assessments of cytotoxicity were done visually by inspecting the cells in the primary screening assays. For the quantitative assays, cells were plated in 96-well plates at 1.0×10^4 per well. The next day the compounds were added at 0.78 to 100 μM in a final concentration of 1% (v/v) DMSO, and the cells were incubated for 24 hours under conditions identical to those employed for the viral replication inhibition assays. Mitochondrial toxicity was measured by incubating the cells with 0.25 mg/mL thiazolyl blue tetrazolium bromide (MTT, Sigma Aldrich Chemical Co.), the cultures were incubated for 60 min, metabolites were solubilized in acidic isopropanol, and absorbance was read at 570 nm. CC50 values were calculated by non-linear curve fitting using GraphPad Prism.
Quantitative toxicity measurements were conducted for all compounds that suppressed HSV replication by >2 log10 at 5 μM plus a number of compounds with lesser inhibitory activity for comparison. Toxicity was assessed by […]. Cells were plated in 96-well plates at 1.0×10^4 per well. The next day compound was added in concentrations ranging from 0.78 to 100 μM in a final concentration of 1% (v/v) DMSO. The cells were incubated for 24 h under conditions identical to those employed for the viral replication inhibition assays, and then mitochondrial activity was measured with the MTT assay (Sigma Aldrich) according to the manufacturer's instructions. Percent viability was determined for each compound concentration from the […], and then 50% cytotoxic concentrations (CC50) values were calculated by non-linear curve fitting using GraphPad Prism. Consistent with the subjective assessments of toxicity, all compounds selected for quantitative toxicity assessment had CC50 values≥50 μM under these conditions (Table 1).

[4] = system: HSV; experiment: Anti-HSV SAR summary, HSV type not separated; type: cell-based, herpes simplex virus; conditions: grouped by activity at 50, 5 and 0.5 μM
Method in brief: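 Confluent monolayers were infected with HSV-1 or HSV-2 at MOI 0.1 in the presence of compound at 50 and 5 µM for 1 h at 37 °C. Compound was then re-added in DMEM/2% newborn calf serum for 23 h more. Yield was titred by plaque assay on Vero cells, with DMSO controls. EC50 values came from serial dilutions starting at 50 µM, fitted by non-linear regression.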

[5] = system: HSV-2; experiment: Anti-HSV-2 replication assay in Vero cells, titers by plaque assay; type: cell-based, herpes simplex virus 2
[6] = system: HSV-2; experiment: Combination of ACV and compound 118 against HSV-2 in Vero cells (plaque assay, qPCR, Chou-Talalay); type: cell-based, herpes simplex virus 2; conditions: constant ratios, MOI 0.1, 24 h, FIGS. 8A-8C
Description: After 24 h, the cultures were collected and divided into two aliquots. […] The area below the lines indicates synergism, and the area above indicates antagonism.

[7] = Cytotoxicity reported with the HBV assay (Table 4); type: cell-based; conditions: human, hepatoma cells; read-out: CC50 (HBV assay table)
Method in brief: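 Cells exposed 24 h to compounds at 0.78–100 μM in 1% DMSO, under the same conditions as the viral replication assays.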

SMILES: Cc1cc(O)c(=O)c(O)cc1C(=O)c1ccc(-c2ccccc2)cc1 [Compound 118]
- Non-P450 turn-over [1]: Potential
- half-life at 1 μM ([1]; read-out: t ½): 34 min
- ER ([1]; extraction ratio): 0.63
- CLint scaled at 1 μM ([1]; mouse, liver microsomes): 154 mL/min/kg
- predicted hepatic clearance at 1 μM ([1]; mouse, liver microsomes, read-out: CL ′hep): 57 mL/min/kg
- EC50 [2]: 6 µM
- CC50 at 24 h [3]: > 100 µM
- anti-HSV SAR group, in words [4]: highly inhibitory at much lower concentrations; also recorded: fully inhibitory at 5 μM
- inhibition of wild-type HSV-2, in words ([5]; 5 μM, laboratory strain, 24 hr, FIG. 4): efficiently inhibited
- EC50 ([5]; Human alphaherpesvirus 2, Vero, 24 h, read-out: HSV-2 EC50): 0.08 µM
- log reduction at 5 µM ([5]; Human alphaherpesvirus 2, Vero, 24 h, read-out: HSV-2 Log suppression 5 μM): 3.22
- log reduction at 50 µM ([5]; Human alphaherpesvirus 2, Vero, 24 h, read-out: HSV-2 Log suppression 50 μM): 5.56
- interaction with ACV on HSV-2 replication and DNA accumulation [6]: synergistically inhibit
- CC50 at 24 h [7]: 21 µM
